Laboratory results reported in the supplement of paper PMC13380429.

What was measured:
Conditions in all cases: 72 h
[1] = tested on: Caco-2; test: cell viability relative to DMSO; higher = less toxic
[2] = tested on: Calu-3; test: as above
[3] = tested on: HepG2; test: as above
[4] = tested on: U2OS; test: as above
[5] = tested on: Vero E6; test: as above
[6] = tested on: Caco-2; test: relative viability EC50 (midpoint between 100% and the lowest measured viability); higher = less toxic
[7] = tested on: Calu-3; test: as above
[8] = tested on: HepG2; test: as above
[9] = tested on: U2OS; test: as above
[10] = tested on: Vero E6; test: as above
[11] = tested on: Caco-2; test: drug sensitivity score (DSS) for viability; higher = more toxic; extreme values may be limits of the assay
[12] = tested on: Calu-3; test: as above
[13] = tested on: HepG2; test: as above
[14] = tested on: U2OS; test: as above
[15] = tested on: Vero E6; test: as above

Row | SMILES | cell viability ([1]; 1 nM) [%] | cell viability ([1]; 10 nM) [%] | cell viability ([1]; 100 nM) [%] | cell viability ([1]; 1000 nM) [%] | cell viability ([1]; 10000 nM) [%] | cell viability ([2]; 1 nM) [%] | cell viability ([2]; 10 nM) [%] | cell viability ([2]; 100 nM) [%] | cell viability ([2]; 1000 nM) [%] | cell viability ([2]; 10000 nM) [%] | cell viability ([3]; 1 nM) [%] | cell viability ([3]; 10 nM) [%] | cell viability ([3]; 100 nM) [%] | cell viability ([3]; 1000 nM) [%] | cell viability ([3]; 10000 nM) [%] | cell viability ([4]; 1 nM) [%] | cell viability ([4]; 10 nM) [%] | cell viability ([4]; 100 nM) [%] | cell viability ([4]; 1000 nM) [%] | cell viability ([4]; 10000 nM) [%] | cell viability ([5]; 1 nM) [%] | cell viability ([5]; 10 nM) [%] | cell viability ([5]; 100 nM) [%] | cell viability ([5]; 1000 nM) [%] | cell viability ([5]; 10000 nM) [%] | relative viability EC50 [6] [µM] | relative viability EC50 [7] [µM] | relative viability EC50 [8] [µM] | relative viability EC50 [9] [µM] | relative viability EC50 [10] [µM] | drug sensitivity score [11] | drug sensitivity score [12] | drug sensitivity score [13] | drug sensitivity score [14] | drug sensitivity score [15]
1 | CN(C)CCn1cc(S(=O)(=O)c2cccc(F)c2)c2cccnc21 | 98.2 | 102 | 106 | 98.8 | 103 | 116 | 94.7 | 90.4 | 97.5 | 95.3 | 106 | 110 | 91.8 | 103 | 97.5 | 103 | 98.3 | 99.9 | 98.2 | 103 | 98.6 | 102 | 101 | 105 | 97.7 | > 10 | > 10 | > 10 | > 10 | > 10 | 0 | 0 | 0 | 0 | 0
2 | COCCOc1ccc2c(c1)ncn2-c1ccc2cccc(N3CCC(N)CC3)c2n1 | 94.1 | 108 | 98.2 | 104 | 90.4 | 96 | 92.7 | 103 | 123 | 87.4 | 99.3 | 101 | 98.3 | 93.3 | 8.1 | 98.6 | 104 | 95.3 | 95.4 | 45.2 | 98.3 | 97.1 | 102 | 94.9 | 48.5 | > 10 | > 10 | 2.57 | 2.47 | 2.35 | 0 | 0 | 6.1 | 3.7 | 3.6
3 | COc1ccc(CCC(=O)Nc2nc3ccc(Cl)cc3s2)cc1OC | 102 | 94 | 95.9 | 92.1 | 85.4 | 102 | 94.9 | 92.7 | 91.7 | 89.3 | 96.5 | 110 | 96.3 | 98.3 | 98.1 | 101 | 94.7 | 98.5 | 95.1 | 96.3 | 101 | 96.9 | 97.3 | 101 | 95.2 | > 10 | > 10 | > 10 | > 10 | > 10 | 0.3 | 0.1 | 0 | 0 | 0
4 | Fc1ccc(-c2nc3n(c2-c2ccncc2)CCS3)cc1 | 99.6 | 101 | 90.9 | 89.4 | 92 | 95.2 | 86.2 | 90.9 | 87.7 | 101 | 97.3 | 93.2 | 97.8 | 99.9 | 100 | 99 | 97.8 | 98.7 | 96.1 | 97.6 | 97.8 | 99.7 | 98.2 | 99.1 | 93 | > 10 | > 10 | > 10 | > 10 | > 10 | 0.2 | 0 | 0 | 0 | 0
5 | NC1=N[C@@]2(c3cc(NC(=O)c4ccc(F)cn4)ccc3F)COC[C@H]2CS1 | 94.8 | 93.7 | 101 | 86 | 103 | 103 | 96.5 | 93.4 | 93.1 | 98.5 | 99.9 | 110 | 93.4 | 112 | 105 | 98.6 | 94.6 | 101 | 98.4 | 100 | 95.5 | 97.2 | 94.3 | 99.4 | 102 | > 10 | > 10 | > 10 | > 10 | > 10 | 0 | 0 | 0 | 0 | 0
6 | NNC(=O)CSc1nc2scc(-c3ccccc3)c2c(=O)n1-c1ccccc1 | 100 | 97.7 | 93.1 | 93.6 | 108 | 91.9 | 93.2 | 95.3 | 103 | 101 |  |  |  |  |  | 97.7 | 95.8 | 98.3 | 103 | 102 | 94.1 | 97.1 | 94.8 | 90.5 | 109 | > 10 | > 10 |  | > 10 | > 10 | 0 | 0 |  | 0 | 0
